We go through three compounds from patent US20040106673A1, “Compositions and methods for inhibiting proliferation in human prostate cancer cells” (priority 2002, published 2004).

Data set [1] relates to LNCaP tumors. The experiment in a line: Mitotic cells and caspase 3 (active form) immunostaining in LNCaP tumors from treated mice. The class given is in vivo, male NCr mice. The settings on record: mice treated for 46 days. The method, then:
(§1) Tumor size and body weight were measured daily.
Tumor sections used were stained by the horseradish peroxidase-conjugated-avidin method. Endogenous peroxidase was blocked by incubating the tissue sections in 3% hydrogen peroxide in methanol for 30 minutes at room temperature. Sections were then treated with 0.01 M sodium citrate buffer (pH 6.0) in a microwave oven at high temperature for 10 minutes. The sections were incubated with a protein block (normal goat serum) for 10 minutes, followed by avidin D for 15 minutes and biotin blocking solution for 15 minutes at room temperature. The sections were incubated with caspase 3 primary antibody (1:2000 dilution) for 30 minutes at room temperature followed by incubation with a biotinylated anti-rabbit secondary antibody for 30 minutes and incubation with conjugated-avidin solution for 30 minutes. Color development was achieved by incubation with 0.02% 3,3′-diaminobenzidine tetrahydrochloride containing 0.02% hydrogen peroxide for 10 minutes at room temperature. The slides were then counterstained with hematoxylin, dehydrated and coverslips were added for permanent mounting. A positive reaction was shown as a light brown to dark brown precipitate in the cytoplasm and/or perinuclei of the cells.

For data set [2], the system named is LNCaP tumors. Nature of the data set: Second in vivo study: TPA, ATRA or both i.p. in NCr mice with LNCaP tumors, 21 or 46 days. The settings on record: for % of Mice with Tumor Growth / % of Mice with Tumor Regression: i.p.; for percent of initial tumor size: TPA 0.16 nmol/g. The method, then: Tumor cell growth was measured and expressed as percent of initial size (FIG. 3). […] In this table, mice in Group A (13 mice/group) were treated for 21 days, while mice in Group B (6 mice/group) were a subset of the original group and were treated for an additional 25 days.
The effect of the 21 day treatments on body weight was examined in order to determine if there was the same level of toxicity seen in the first animal study.
The results from the Group B animals were analyzed separately.
Male Ncr immunodeficient mice (6 to 7 weeks old) were obtained from Taco Farms (Germantown, N.Y.). The animals were housed in sterile filter-capped microisolator cages and provided with sterilized food and water. Prostate cancer cells (2×10^6 cells/0.1 ml/mouse) suspended in 50% matrigel (Collaborative Research, Bedford, Mass.) in RPMI 1640 medium were injected subcutaneously into the right flank of the mice. After 4 to 6 weeks, mice with well-established tumors (0.65 to 1 cm by 0.65 to 1 cm) were used for the various experiments. In all experiments, animals received the same volume of injections (5 μl/g body weight). Tumor size and body weight were measured daily. At the end of a study, mice were sacrificed by decapitation, tumors were excised, weighed, and placed in phosphate-buffered formalin for 48 hr at room temperature and then placed in ethanol for 48 hr before preparing paraffin sections.

The test system of data set [3] is LNCaP cells. The experiment in a line: Number of viable LNCaP cells (trypan blue exclusion). The class given is cell-based, human. The settings on record: for effect on LNCaP cell growth (FIG. 2): TPA alone 0.32 nM, ATRA alone 0.5 to 10 μM, or 0.32 nM TPA with increasing ATRA. The method, then:
LNCaP cells were seeded in culture dishes and incubated for 24 hours to allow the cells to attach to the culture dishes. The cells were then treated with ethanol (2 μl/ml) or TPA in ethanol (0.2 to 10 ng/ml) for 96 hours.
The number of viable and dead cells was determined by trypan blue exclusion. […] The concentration of TPA that caused a 50% inhibition of LNCaP cell growth was 3 nM (IC50). The IC50 for TPA varied between 1 and 3 nM in different experiments.
(§2) LNCaP cells were obtained from the American Type Culture Collection (Rockville, Md., USA). TPA was obtained from Alexis Co. (San Diego, Calif.). ATRA was obtained from Sigma Chemical Co. (St. Louis, Mo.). LNCaP cells were maintained in RPMI-1640 culture medium containing 10% fetal bovine serum that was supplemented with penicillin (100 units/ml), streptomycin (100 μg/ml) and L-glutamine (300 μg/ml) as described (Zheng, X. et al. 2000. Oncol. Res. 12:419=427). Cultured cells were grown at 37° C. in a humidified atmosphere of 5% CO2 and were passed twice a week. In all experiments, LNCaP cells were initially seeded at a density of 1×10^5 cells/ml in a final volume of 2 or 5 ml in 35 or 60 mm tissue culture dishes, respectively.
To quantify the number of viable cells after each treatment, cells were counted using a hemacytometer under a light microscope. Cell viability was determined by the trypan blue exclusion assay, which was done by mixing 80 μl of cell suspension and 20 μl of 0.4% trypan blue solution for 2 minutes.

Data set [4] has as its system LNCaP cells. The experiment in a line: Flow cytometry (propidium iodide): cell cycle distribution and apoptosis in cultured LNCaP cells. The settings on record: for apoptotic cells (percent of pre-G0/G1 cells): single drug, TPA 0.16 or 0.32 nM. Format: cell-based, human. The method, then:
as §2, with “ATRA was obtained from Sigma Chemical Co. (St. Louis, Mo.).” left out
To perform the analysis, 1×10^6 cells were washed with phosphate-buffered saline (PBS) and resuspended in 500 μl of stain solution (20 mg/ml polyethylene glycol 8000, 50 μg/ml propidium iodide, 0.1% Triton-X-100, and 0.4 M sodium chloride). The mixture was incubated at 4° C. overnight in the dark before being analyzed on a Coulter Epics-Profile II flow cytometer. Propidium iodide is a fluorescent dye that intercalates into the DNA double helix. Whether cells are in the G1 phase where they have two copies of their genome or in the G2/M phase where they have 4 copies of their genome, or in the S phase where their DNA is between the two states, can be determined by the amount of propidium iodide that intercalates into the DNA. Pre G0/G1 cells were considered apoptotic cells. The proportion of cells in each phase of the cell cycle was calculated using the cytologic software provided.

A short description of data set [5]: Blood levels of TPA after i.p. injection in NCr mice (HL-60 differentiation bioassay). The class given is in vivo, male NCr mice. The method, then: Immunodeficient male NCr mice were used as they are a well-established mouse model for examination of human tumor cell growth. […] TPA was administered in a vehicle that consisted of propylene glycol, polysorbate 80, benzyl alcohol, ethanol, and water (40:0.5:1:10:48.5). Peak blood levels of TPA were in the range of 3 ng/ml (4.8 nM) after a 200 ng/g injection and 1 ng/ml (1.7 nM) after a 100 ng/g injection.
The concentration of TPA in blood after an i.p. injection of TPA was measured by a bioassay that quantifies ethyl acetate-extractable differentiating activity in blood (Cui, X. X. et al. 2002. Oncol. Res. 13:169-174). Differentiating activity was measured in HL-60 cells. […] Although blood levels of bioactive material are expressed as ng of TPA/ml blood, the assay could include biologically active metabolites.

The conditions of data set [6]: doses of TPA in the range of 0.25 to 1 mg; cited from earlier work.
Data set [7] concerns LNCaP tumors. Nature of the data set: First in vivo study: TPA i.p. in NCr mice with LNCaP tumors, 13 days. Also noted: species or system male NCr mice. The protocol: With the feasibility of the use of TPA by i.p. injection now established, male NCr mice were injected subcutaneously with LNCaP cells in matragel. […] On day 3, the dose of TPA was increased (0.32 nmol/g; 5 μl vehicle/g body weight) and this dose level was administered i.p. for 11 days. The length and width of each tumor was measured at the start of the study and during treatment with TPA. Tumor size was expressed as cm^2 (length×width). There was a statistically significant inhibition of tumor cell growth in the TPA treated animals. The average tumor size in the vehicle-treated control group increased to about 200% of the initial tumor size while the average tumor size after 13 days of treatment with TPA was about 95% of the initial tumor size.
as §1

Setting [8] is: entire 46 day treatment interval (Group B), ATRA 0.5 nmol/g.
Setting [9] is: TPA 0.32 nM, ATRA 1 μM, 96 hours.
The mark [10] stands for this setting: Treatment for 48 Hours, TPA 1 ng/ml, Taxol 5 ng/ml.
[11] abbreviates: Treatment for 96 Hours, TPA 1 ng/ml, Taxol 5 ng/ml.

Values joined by “and” are separate entries in the source; they are usually repeats but may differ in a detail not shown here. Equal entries are not always repeated.

For the compound `CC1=C(/C=C/C(C)=C/C=C/C(C)=C/C(=O)O)C(C)(C)CCC1` [ATRA, all-trans-retinoic acid], in data set [1], the “% Caspase 3 Positive Cells” value came to 0.35 ± 0.03% and the “% Mitotic Cells” value is recorded as 0.54 ± 0.04%. Further, in data set [2] (Group A, 21 days), the “% of Mice with Tumor Growth” value is reported as 69% and the “% of Mice with Tumor Regression” value is recorded as 31%. In data set [2] (Group B, 46 days), the “% of Mice with Tumor Growth” value stood at 83% and the “% of Mice with Tumor Regression” value is on record as 17%. The “rate of tumor growth at later time intervals (FIG. 5)” value in data set [2] (Group B, 46 days, ATRA 0.5 nmol/g) is “about the same rate as tumors in the vehicle control group”. In data set [2] (setting [8]), the “percent of initial tumor size” value is 159.2±27.0%. In addition, the “# Visible Cells (1 × 10^5)” value in data set [3] (setting [9]) was 11.1 1 × 10^5. Also, the “effect on LNCaP cell growth (FIG. 2)” value in data set [3] is on record as “little effect on LNCaP cell growth”. In data set [4] (setting [9]), the “% Apoptotic Cells” value was 3.5%, the “% Cells in G0/G1” value was 73.3%, the “% Cells in G2/M” value is given as 8.2% and the “% Cells in S” value turned out to be 14.8%. Besides, the “apoptotic cells (percent of pre-G0/G1 cells)” value in data set [4] (96 hours, ATRA 1 μM) is “same low level of apoptotic cells”.

On to `CCCCCCCCCCCCCC(=O)O[C@@H]1[C@@H](C)[C@@]2(O)[C@@H](C=C(CO)C[C@]3(O)C(=O)C(C)=C[C@@H]23)[C@@H]2C(C)(C)[C@]12OC(C)=O` [TPA, 12-O-tetradecanoylphorbol-13-acetate], for which, in data set [1], the “% Caspase 3 Positive Cells” value came out at 0.45 ± 0.03 %. Moreover, the “% Mitotic Cells” value in data set [1] is 0.50 ± 0.05%. For the same compound, the “Ratio of Mitotic Cells/Caspase 3 Cells” value in data set [1] is 1.13 ± 0.11. Moreover, the “peak blood level of TPA” value in data set [5] (after a 100 ng/g i.p. injection) was ~1 ng/ml and ~1.7 nM; in data set [5] (after a 200 ng/g i.p. injection), “about 3 ng/ml and ~4.8 nM”. Further, the “time of peak blood levels” value in data set [5] (i.p. 100 or 200 ng TPA per gram of body weight) was 30 to 60 min. Further, the “TPA in blood at 8, 12 or 24 hours” value in data set [5] (i.p. injection of 100 ng/g TPA) is listed as “No TPA was detectable”. The “TPA in blood at 8 and 24 hours” value in data set [5] (i.p. injection of 200 ng/g TPA) is “Measurable blood levels of TPA”. In addition, in data set [5] (i.p., NCr mice), the “half-life of TPA” value lay within 3 to 6 h. In data set [6], the toxicity in humans entry is “only vein irritation and transient fever, and an occasional incidence of transient dyspnea”. The toxicity result in data set [7] (13 days, TPA 0.16 then 0.32 nmol/g i.p. once a day) was “excessive toxicity (decreased body weight and one death on day 14 of the study)”. The “average tumor size, % of the initial tumor size” value in data set [7] (after 13 days, TPA 0.16 nmol/g for 2 days then 0.32 nmol/g for 11 days, i.p.) was “about 95%”. Besides, the “percent of initial tumor size” value in data set [2] (21 days, once a day i.p., ATRA 0.5 nmol/g) was 96.4±3.1%; in data set [2] (setting [8]), 106.1±21.0%. Besides, the “% of Mice with Tumor Growth” value stood at 38% in data set [2] (Group A, 21 days) and 33% in data set [2] (Group B, 46 days). In addition, the “% of Mice with Tumor Regression” value in data set [2] (Group A, 21 days) came out at 62%; in data set [2] (Group B, 46 days), 67%. For the same compound, in data set [2] (treated for 46 days), the “effect on body weight” value was “significant decreases in body weight”. Moreover, the apoptotic cell morphology entry in data set [3] (3.2 nM TPA) is “morphologically distinct apoptotic cells”. Besides, the “# Visible Cells (1 × 10^5)” value in data set [3] (setting [9]) is 6.9 1 × 10^5; in data set [3] (setting [10]), 3.7 1 × 10^5; in data set [3] (setting [11]) it was 3.2 1 × 10^5. In addition, the “effect on LNCaP cell growth (FIG. 2)” value in data set [3] was “slight inhibitory effect on cell growth”. In addition, the “% Apoptotic Cells” value in data set [4] (setting [9]) amounted to 5.4%; in data set [4] (setting [10]), 10.1%; in data set [4] (setting [11]), 11.2%. The figures for the “% Cells in G0/G1” value in data set [4] (setting [9]), in data set [4] (setting [10]) and in data set [4] (setting [11]) were 69.7%, 77.8% and 66.7%, respectively. For the same compound, the “% Cells in G2/M” value in data set [4] (setting [9]) was 8.7%; in data set [4] (setting [10]), 5.5%; in data set [4] (setting [11]) it was 9.5%. Further, the results for the “% Cells in S” value in data set [4] (setting [9]), in data set [4] (setting [10]) and in data set [4] (setting [11]) were 15.9%, 13.0% and 12.3%, respectively. Besides, the “apoptotic cells (percent of pre-G0/G1 cells)” value in data set [4] (96 hours, ATRA 1 μM) is listed as “same low level of apoptotic cells”.

Turning to `CC(=O)O[C@H]1C(=O)[C@@]2(C)[C@H]([C@H](OC(=O)c3ccccc3)[C@]3(O)C[C@H](OC(=O)[C@H](O)[C@@H](NC(=O)c4ccccc4)c4ccccc4)C(C)=C1C3(C)C)[C@]1(OC(C)=O)CO[C@@H]1C[C@@H]2O` [Taxol, paclitaxol], the “# Visible Cells (1 × 10^5)” value in data set [3] (setting [10]) is recorded as 4.6 1 × 10^5. Also, the “# Visible Cells (1 × 10^5)” value in data set [3] (setting [11]) is reported as 2.5 1 × 10^5. In addition, in data set [4] (setting [10]), the “% Apoptotic Cells” value is 12.9%, the “% Cells in G0/G1” value was 73.0%, the “% Cells in G2/M” value worked out at 6.4% and the “% Cells in S” value is on record as 12.8%. In addition, in data set [4] (setting [11]), the “% Apoptotic Cells” value amounted to 28.4%, the “% Cells in G0/G1” value is reported as 49.7%, the “% Cells in G2/M” value stood at 8.7% and the “% Cells in S” value was 12.4%.
